{"source": "paper PMC6706398", "about": "(Scientific Reports, 2019)", "key": {"CT [1]": {"tested_on": "CT", "conditions": "cited from earlier work"}, "CT [2]": {"target": "CT", "conditions": "cited from earlier work", "remark": "listed apart in the source"}, "[3]": {"target": "wild-type CT holotoxin (cCT) (Vibrio cholerae, UniProt Q57193)", "assay": "biochemical", "format": "binding"}, "[4]": {"tested_on": "CTB binding in cell culture (intestinal epithelial cells)", "conditions": "cited from earlier work"}, "[5]": {"tested_on": "CTB binding to jejunal epithelial cells", "conditions": "cited from earlier work"}}, "note": "“And” between values parts separate entries of the source, which are not always exact repeats. Equal entries are not always repeated. Where two headings read alike, the source gives them in different places."}
{"smiles": "CC(=O)N[C@H]1[C@H](O[C@@H]2[C@H](O[C@]3(C(=O)O)C[C@H](O)[C@@H](NC(C)=O)[C@H]([C@H](O)[C@H](O)CO)O3)[C@@H](O)[C@H](O[C@H]3[C@H](O)[C@@H](O)[C@H](O)O[C@@H]3CO)O[C@@H]2CO)O[C@H](CO)[C@H](O)[C@@H]1O[C@@H]1O[C@H](CO)[C@H](O)[C@H](O)[C@H]1O[C@@H]1O[C@@H](C)[C@@H](O)[C@@H](O)[C@@H]1O", "note": "[Fucosyl-GM1]", "values": [{"measurement": "binding to CT relative to GM1", "setting": "CT [1]", "value": "almost as strongly as GM1"}]}
{"smiles": "CC(=O)N[C@H]1[C@H](O[C@@H]2[C@H](O[C@]3(C(=O)O)C[C@H](O)[C@@H](NC(C)=O)[C@H]([C@H](O)[C@H](O)CO)O3)[C@@H](O)[C@H](O[C@H]3[C@H](O)[C@@H](O)[C@H](O)O[C@@H]3CO)O[C@@H]2CO)O[C@H](CO)[C@H](O)[C@@H]1O[C@@H]1O[C@H](CO)[C@H](O)[C@H](O)[C@H]1O[C@@H]1O[C@@H](C)[C@@H](O)[C@@H](O)[C@@H]1O", "note": "[GM1os]", "values": [{"measurement": "Kd", "setting": "CT [2]", "value": 43, "unit": "nM"}, {"measurement": "Kd", "setting": "[3]", "value": "5.77e-05 ± 3e-07", "unit": "mM"}]}
{"smiles": "C[C@H](O)[C@@H](O)[C@@H](O)[C@H](O)C=O", "note": "[L-fucose]", "values": [{"measurement": "blocking of CTB binding in cell culture", "setting": "[4]", "value": "block CTB binding"}]}
{"smiles": "CC(=O)N[C@H]1[C@H](O[C@@H]2[C@@H](O)[C@H](O)O[C@H](CO)[C@@H]2O)O[C@H](CO)[C@@H](O[C@@H]2O[C@H](CO)[C@H](O)[C@H](O)[C@H]2O)[C@@H]1O[C@@H]1O[C@@H](C)[C@@H](O)[C@@H](O)[C@@H]1O", "note": "[Le^x tetraose]", "values": [{"measurement": "Kd", "setting": "[3]; Kd", "value": "7.7 ± 0.5", "unit": "mM"}]}
{"smiles": "CC(=O)N[C@@H]1[C@@H](O[C@@H]2O[C@@H](C)[C@@H](O)[C@@H](O)[C@@H]2O)[C@H](O[C@@H]2O[C@H](CO)[C@H](O)[C@H](O)[C@H]2O)[C@@H](CO)O[C@H]1O", "note": "[Le^x triaose]", "values": [{"measurement": "blocking of CTB binding to jejunal epithelial cells", "setting": "[5]", "value": "can be blocked"}, {"measurement": "Kd", "setting": "[3]; Kd", "value": "8.1 mM and 8 mM"}]}
